# Measurements: ChEMBL document CHEMBL1201862, “PubChem BioAssay data set” (2004)
#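 Exposure lasted 48 hours, with cells grown in 96-well plates and compounds tested at five concentrations. GI50: concentration for 50% inhibition of growth.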 Activity calls are given as the source filed them. Cut-off read from the data, not from the text of the source: active = GI50 up to about 1.1 µM and inactive = higher.
# What was measured:
# Assay in all cases: NCI-60 cell line screen, 48 h
# 786-0 = system: 786-0
# COLO 205 = system: COLO 205
# DU-145 = system: DU-145
# HCC 2998 = system: HCC 2998
# HCT-116 = system: HCT-116
# HCT-15 = system: HCT-15
# HL-60 = system: HL-60
# HOP-62 = system: HOP-62
# HOP-92 = system: HOP-92
# Hs-578T = system: Hs-578T
# K562 = system: K562
# KM12 = system: KM12
# NCI/ADR-RES = system: NCI/ADR-RES
# SF-295 = system: SF-295
# SF-539 = system: SF-539
# SK-MEL-5 = system: SK-MEL-5
# SW-620 = system: SW-620
# U-251 = system: U-251
# UACC-62 = system: UACC-62
Structure (SMILES),GI50 (786-0),GI50 (COLO 205),GI50 (DU-145),GI50 (HCC 2998),GI50 (HCT-116),GI50 (HCT-15),GI50 (HL-60),GI50 (HOP-62),GI50 (HOP-92),GI50 (Hs-578T),GI50 (K562),GI50 (KM12),GI50 (NCI/ADR-RES),GI50 (SF-295),GI50 (SF-539),GI50 (SK-MEL-5),GI50 (SW-620),GI50 (U-251),GI50 (UACC-62)
C=C(CN(CC)CC)C1(c2ccccc2)CC2(CCCC2)C(=O)O1 (stereo not given),> 100 µM (inactive),55 µM (inactive),> 100 µM (inactive),> 100 µM (inactive),38.3 µM (inactive),> 100 µM,40.6 µM (inactive),> 100 µM (inactive),28.6 µM (inactive),> 100 µM (inactive),> 100 µM (inactive),> 100 µM (inactive),11.1 µM (inactive),> 100 µM (inactive),> 100 µM (inactive),68.4 µM (inactive),> 100 µM (inactive),> 100 µM (inactive),> 100 µM (inactive)
CC(=O)OCC1OC(n2c(N)c(C#N)c(-c3ccc(C)cc3)c(C#N)c2=S)C(OC(C)=O)C(OC(C)=O)C1OC(C)=O (stereo not given),15.7 µM (inactive),16 µM (inactive),15.4 µM (inactive),16.9 µM (inactive),46.1 µM (inactive),38 µM,87.5 µM (inactive),20 µM (inactive),15.2 µM (inactive),19.8 µM (inactive),40.5 µM (inactive),79.1 µM (inactive),30 µM (inactive),25.4 µM (inactive),4.91 µM (inactive),11.1 µM (inactive),36 µM (inactive),17 µM (inactive),43.5 µM (inactive)
COc1ccc(/C=c2/[nH]c(=O)/c(=C\c3ccc(OCc4ccccc4)cn3)[nH]c2=O)cc1,49.9 µM (inactive),32.2 µM (inactive),> 100 µM (inactive),> 100 µM (inactive),48 µM (inactive),38.6 µM,6.93 µM (inactive),43 µM (inactive),23.2 µM (inactive),57.5 µM (inactive),31.1 µM (inactive),47.1 µM (inactive),58.1 µM (inactive),40.6 µM (inactive),32.4 µM (inactive),50.2 µM (inactive),62.4 µM (inactive),40.6 µM (inactive),> 100 µM (inactive)
COC(=O)c1nc(-c2nc(CCNC(=O)OC(C)(C)C)sc2Cl)sc1Cl,> 100 µM (inactive),98.4 µM (inactive),> 100 µM (inactive),> 100 µM (inactive),60.7 µM (inactive),36.3 µM,71.9 µM (inactive),32.6 µM (inactive),6.62 µM (inactive),> 100 µM (inactive),36.7 µM (inactive),55.3 µM (inactive),32.2 µM (inactive),> 100 µM (inactive),> 100 µM (inactive),31.8 µM (inactive),> 100 µM (inactive),> 100 µM (inactive),35.3 µM (inactive)
Cc1c(OCc2cccc3ccccc23)ccc2c(O)cc(=S)oc12,41.8 µM (inactive),31.4 µM (inactive),36.2 µM (inactive),31.4 µM (inactive),26.7 µM (inactive),35.3 µM,19.4 µM (inactive),37.3 µM (inactive),27.1 µM (inactive),34.8 µM (inactive),36.1 µM (inactive),29.2 µM (inactive),38.2 µM (inactive),29.8 µM (inactive),26.9 µM (inactive),18.5 µM (inactive),39.2 µM (inactive),35.6 µM (inactive),23.1 µM (inactive)
O=C(O)c1cc2ccccc2c2c1C(=O)c1ccccc1-2,> 100 µM (inactive),> 100 µM (inactive),> 100 µM (inactive),> 100 µM (inactive),> 100 µM (inactive),92 µM,> 100 µM (inactive),20.7 µM (inactive),50.2 µM (inactive),> 100 µM (inactive),> 100 µM (inactive),> 100 µM (inactive),> 100 µM (inactive),56 µM (inactive),> 100 µM (inactive),79.3 µM (inactive),> 100 µM (inactive),> 100 µM (inactive),45.9 µM (inactive)
CCCC(O)c1cn(C(NC(=O)c2ccccc2)P(=O)(OCC)OCC)nn1 (stereo not given),> 100 µM (inactive),> 100 µM (inactive),> 100 µM (inactive),> 100 µM (inactive),> 100 µM (inactive),> 100 µM,> 100 µM (inactive),> 100 µM (inactive),> 100 µM (inactive),> 100 µM (inactive),> 100 µM (inactive),> 100 µM (inactive),> 100 µM (inactive),> 100 µM (inactive),> 100 µM (inactive),> 100 µM (inactive),> 100 µM (inactive),> 100 µM (inactive),39.4 µM (inactive)
Cc1cc(NS(=O)(=O)c2ccc(NC(NC(=O)C(C(F)(F)F)C(F)(F)F)(C(F)(F)F)C(F)(F)F)cc2)no1,> 100 µM (inactive),> 100 µM (inactive),> 100 µM (inactive),> 100 µM (inactive),> 100 µM (inactive),> 100 µM,> 100 µM (inactive),> 100 µM (inactive),> 100 µM (inactive),> 100 µM (inactive),> 100 µM (inactive),> 100 µM (inactive),> 100 µM (inactive),> 100 µM (inactive),> 100 µM (inactive),> 100 µM (inactive),> 100 µM (inactive),> 100 µM (inactive),> 100 µM (inactive)
Cc1nc2cccc(F)c2c(=O)n1-c1nnc(C(F)(F)F)s1,> 10 µM (inactive),> 10 µM (inactive),> 10 µM (inactive),> 10 µM (inactive),> 10 µM (inactive),> 10 µM,> 10 µM (inactive),> 10 µM (inactive),> 10 µM (inactive),> 10 µM (inactive),> 10 µM (inactive),> 10 µM (inactive),> 10 µM (inactive),> 10 µM (inactive),> 10 µM (inactive),> 10 µM (inactive),> 10 µM (inactive),> 10 µM (inactive),> 10 µM (inactive)
C[C@]12CC[C@H](O)CC1=CC[C@@H]1[C@@H]2CC[C@]2(C)c3nc(Cl)ccc3C[C@@H]12,30.1 µM (inactive),> 100 µM (inactive),> 100 µM (inactive),> 58.1 µM (inactive),47 µM (inactive),9.46 µM,40.1 µM (inactive),30.7 µM (inactive),> 100 µM (inactive),35.2 µM (inactive),5.78 µM (inactive),22.2 µM (inactive),29.5 µM (inactive),28.2 µM (inactive),14.9 µM (inactive),> 46.2 µM (inactive),> 42.3 µM (inactive),31 µM (inactive),11.5 µM (inactive)
Cc1cc(NS(=O)(=O)c2ccc(NC(=O)c3ccc4[nH]c5ccccc5c(=O)c4c3)cc2)no1,> 100 µM (inactive),> 100 µM (inactive),> 100 µM (inactive),85.3 µM (inactive),> 100 µM (inactive),> 100 µM,> 100 µM (inactive),> 100 µM (inactive),88.3 µM (inactive),49.9 µM (inactive),> 100 µM (inactive),44.1 µM (inactive),> 100 µM (inactive),> 100 µM (inactive),68.1 µM (inactive),> 100 µM (inactive),> 100 µM (inactive),47.4 µM (inactive),> 100 µM (inactive)
COc1cc(/C=C/C(=N\NC(=S)NN)c2sc(NNC(C)=O)nc2C)ccc1O,> 100 µM (inactive),> 100 µM (inactive),> 100 µM (inactive),> 100 µM (inactive),> 100 µM (inactive),> 100 µM,> 100 µM (inactive),> 100 µM (inactive),> 100 µM (inactive),> 100 µM (inactive),> 100 µM (inactive),66.2 µM (inactive),> 100 µM (inactive),> 100 µM (inactive),> 100 µM (inactive),> 100 µM (inactive),> 100 µM (inactive),> 100 µM (inactive),> 100 µM (inactive)
COc1cc(N(Cc2ccc3oc(=O)c(-c4ccccc4)nc3c2)Cc2ccc3oc(=O)c(-c4ccccc4)nc3c2)cc(OC)c1OC,> 10 µM (inactive),> 10 µM (inactive),> 10 µM (inactive),> 10 µM (inactive),> 10 µM (inactive),> 10 µM,> 10 µM (inactive),> 10 µM (inactive),> 10 µM (inactive),> 10 µM (inactive),> 10 µM (inactive),> 10 µM (inactive),> 10 µM (inactive),> 10 µM (inactive),> 10 µM (inactive),> 10 µM (inactive),> 10 µM (inactive),> 10 µM (inactive),> 10 µM (inactive)
Fc1ccc(C(OCCN2CCN(CCCCl)CC2)c2ccc(F)cc2)cc1,28.4 µM (inactive),16.3 µM (inactive),28.9 µM (inactive),18.5 µM (inactive),19.5 µM (inactive),17.3 µM,0.391 µM (active),33 µM (inactive),12.5 µM (inactive),29.9 µM (inactive),15.3 µM (inactive),18.3 µM (inactive),24.7 µM (inactive),22.9 µM (inactive),18.7 µM (inactive),18 µM (inactive),32.2 µM (inactive),41 µM (inactive),19.1 µM (inactive)
Cn1c(-c2cccs2)cc(-c2cccs2)c1-c1cccs1,> 100 µM (inactive),8.95 µM (inactive),> 100 µM (inactive),37.8 µM (inactive),34.6 µM (inactive),21.8 µM,33 µM (inactive),> 100 µM (inactive),> 100 µM (inactive),44.5 µM (inactive),51.8 µM (inactive),35.7 µM (inactive),> 100 µM (inactive),> 81.3 µM (inactive),> 100 µM (inactive),14.5 µM (inactive),> 100 µM (inactive),> 79.3 µM (inactive),11.9 µM (inactive)
